According to US20260365663A1, “EMOPAMIL-BINDING PROTEIN INHIBITORS AND USES THEREOF” (BIOGEN MA INC., priority 2022, published 2026):

These compounds were tested against T1, EBP (Homo sapiens, UniProt Q15125) (assay: EBP Functional Assay (EBP immunoaffinity LC-MS assay)). Settings: not given.
T1 construct: HEK293T cells were utilized as the source of EBP enzyme; endogenous in cells; host or cells: HEK293T
Type: biochemical
Procedure: The EBP immunoaffinity (IA) LC-MS assay measures the potency of small molecule inhibitors of EBP by quantifying their concentration-dependent changes in the enzyme's substrate and product using liquid chromatography atmospheric pressure chemical ionization multiple reaction monitoring mass spectrometry (LC-APCI MRM MS). HEK293T cells were utilized as the source of EBP enzyme. The enzyme was incubated with the small molecule inhibitors at variable concentrations for 30 min. Deuterated form of EBP substrate, zymosterol-d5 (Avanti Polar Lipids, Cat #700068P-1 mg), was then added and the plate was incubated at 37 °C for 4 h. Finally, the sterol isomers were extracted and injected to LC-APCI MRM MS. MRM transition used for the quantification for both zymosterol and dihydrolathosterol (substrate and product of EBP enzymatic reaction, respectively) is 372.3-203.2, CE 30 and DP 80 in positive ion mode. Percent conversion of the zymosterol-d5 to dehydrolathosterol-d5 was used to derive IC50 curves. Tasin-1 (1′-[(4-Methoxyphenyl)sulfonyl]-4-methyl-1,4′-bipiperidine, CAS 792927-06-1) was used as the reference small molecule inhibitor.
Percent conversion versus the compound concentration data were fit to the following 4-parameter logistic model to generate IC50 curves: […]

T1 sequence (Q15125 whole entry): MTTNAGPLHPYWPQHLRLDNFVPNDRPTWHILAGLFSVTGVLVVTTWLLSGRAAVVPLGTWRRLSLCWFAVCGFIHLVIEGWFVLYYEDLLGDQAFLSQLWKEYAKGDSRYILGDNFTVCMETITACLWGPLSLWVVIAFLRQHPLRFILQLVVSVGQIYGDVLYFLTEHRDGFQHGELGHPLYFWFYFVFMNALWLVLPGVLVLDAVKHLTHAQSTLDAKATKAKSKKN

Compound | IC50 [nM]
O=S(=O)(c1ccc(OC(F)F)cc1)N1CC2(CCC(N3CCOCC3)C2)C1 (stereo not drawn) [Example 44, 4-(2-((4-(Difluoromethoxy)phenyl)sulfonyl)-2-azaspiro[3.4]octan-6-yl)morpholine] | 500 to 3000
Cc1nn(C)c(S(=O)(=O)N2CC3(CCC(N4CCOCC4)C3)C2)c1C(F)F (stereo not drawn) [Example 38, 4-(2-((4-(Difluoromethyl)-1,3-dimethyl-1H-pyrazol-5-yl)sulfonyl)-2-azaspiro[3.4]octan-6-yl)morpholine] | 100 to 500
Cc1nc(Cl)ccc1S(=O)(=O)N1CC2(CCC(N3CCOCC3)C2)C1 (stereo not drawn) [Example 42, 4-(2-((6-Chloro-2-methylpyridin-3-yl)sulfonyl)-2-azaspiro[3.4]octan-6-yl)morpholine] | < 100
Cc1ccc(S(=O)(=O)N2CC3(CCC(N4CCOCC4)C3)C2)c(C)c1 (stereo not drawn) [Example 45, 4-(2-((2,4-Dimethylphenyl)sulfonyl)-2-azaspiro[3.4]octan-6-yl)morpholine] | < 100

Further lines, results first:

IC50 [nM] | Compound
< 100 | Cc1nc(C(F)(F)F)ncc1S(=O)(=O)N1CC2(CC(N(C)C3CCOCC3)C2)C1 [Example 80, N-methyl-2-((4-methyl-2-(trifluoromethyl)pyrimidin-5-yl)sulfonyl)-N-(tetrahydro-2H-pyran-4-yl)-2-azaspiro[3.3]heptan-6-amine]
100 to 500 | Cc1cc(S(=O)(=O)N2CC3(CC(N4CCC(C)CC4)CO3)C2)n(C)n1 (stereo not drawn) [Example 55, 2-((1,3-Dimethyl-1H-pyrazol-5-yl)sulfonyl)-7-(4-methylpiperidin-1-yl)-5-oxa-2-azaspiro[3.4]octane]

Same assay, conditions: HEK293T cells as source of EBP enzyme; zymosterol-d5 substrate; inhibitor 30 min, then 37 °C for 4 h; percent conversion to dehydrolathosterol-d5 by LC-APCI MRM MS; read-out: EBP Functional Assay

Compound | IC50 [nM]
Cc1nc(C(F)(F)F)ccc1S(=O)(=O)N1CC2(CC(N3CCOCC3)C2)C1 [Example 5, 4-(2-((2-Methyl-6-(trifluoromethyl)pyridin-3-yl)sulfonyl)-2-azaspiro[3.3]heptan-6-yl)morpholine] | 100 to 500
COc1ncc(C)cc1S(=O)(=O)N1CC2(CC(N3CC(OC)C3)CO2)C1 (stereo not drawn) [Example 23, 2-((2-Methoxy-5-methylpyridin-3-yl)sulfonyl)-7-(3-methoxyazetidin-1-yl)-5-oxa-2-azaspiro[3.4]octane] | 500 to 3000
CC1CCN(C2CC3(C2)CN(S(=O)(=O)c2ccc(OC(F)F)cc2)C3)CC1 [Example 20, 2-((4-(Difluoromethoxy)phenyl)sulfonyl)-6-(4-methylpiperidin-1-yl)-2-azaspiro[3.3]heptane] | 500 to 3000
N#Cc1ccc(F)c(S(=O)(=O)N2CC3(CC(NC4CCC(F)(F)CC4)CO3)C2)c1 (stereo not drawn) [Example 26, 3-((7-((4,4-Difluorocyclohexyl)amino)-5-oxa-2-azaspiro[3.4]octan-2-yl)sulfonyl)-4-fluorobenzonitrile] | 500 to 3000
Cc1nc(C(C)(F)F)ccc1S(=O)(=O)N1CC2(CC(NC3CCOCC3)C2)C1 [Example 2, 2-((6-(1,1-Difluoroethyl)-2-methylpyridin-3-yl)sulfonyl)-N-(tetrahydro-2H-pyran-4-yl)-2-azaspiro[3.3]heptan-6-amine] | < 100
COc1ccc(S(=O)(=O)N2CC3(CCC(N4CC5(COC5)C4)C3)C2)c(C)n1 (stereo not drawn) [Example 30, 6-(2-((6-Methoxy-2-methylpyridin-3-yl)sulfonyl)-2-azaspiro[3.4]octan-6-yl)-2-oxa-6-azaspiro[3.3]heptane] | 500 to 3000
Cn1nc(C(F)(F)F)cc1S(=O)(=O)N1CC2(CC(NC3COC3)C2)C1 [Example 13, 2-((1-Methyl-3-(trifluoromethyl)-1H-pyrazol-5-yl)sulfonyl)-N-(oxetan-3-yl)-2-azaspiro[3.3]heptan-6-amine] | 500 to 3000
COCCN(C)C1CCC2(C1)CN(S(=O)(=O)c1cc(C(F)(F)F)nn1C)C2 (stereo not drawn) [Example 33, N-(2-Methoxyethyl)-N-methyl-2-((1-methyl-3-(trifluoromethyl)-1H-pyrazol-5-yl)sulfonyl)-2-azaspiro[3.4]octan-6-amine] | 500 to 3000
Cc1cc(C)c(S(=O)(=O)N2CC3(CCC(N4CCOCC4)C3)C2)c(C)c1 (stereo not drawn) [Example 43, 4-(2-(Mesitylsulfonyl)-2-azaspiro[3.4]octan-6-yl)morpholine] | < 100

The next lines start with the values.

IC50 [nM] | Compound
500 to 3000 | Cn1nc(C(F)(F)F)cc1S(=O)(=O)N1CC2(C[C@@H](N3CCOCC3)CO2)C1 [Example 57, (R)-2-((1-methyl-3-(trifluoromethyl)-1H-pyrazol-5-yl)sulfonyl)-7-morpholino-5-oxa-2-azaspiro[3.4]octane]
100 to 500 | Cc1cc(C)c(S(=O)(=O)N2CC3(CC(N4CCOCC4)CO3)C2)c(C)c1 (stereo not drawn) [Example 53, 2-(Mesitylsulfonyl)-7-morpholino-5-oxa-2-azaspiro[3.4]octane]
100 to 500 | Cc1nc(C(C)(F)F)ccc1S(=O)(=O)N1CC2(CC(NC3CC4(COC4)C3)C2)C1 (stereo not drawn) [Example 70, 2-((6-(1,1-difluoroethyl)-2-methylpyridin-3-yl)sulfonyl)-N-(2-oxaspiro[3.3]heptan-6-yl)-2-azaspiro[3.3]heptan-6-amine]
100 to 500 | Cc1nc(C(C)(F)F)ccc1S(=O)(=O)N1CC2(CC(N(C)C3COC3)C2)C1 [Example 73, 2-((6-(1,1-difluoroethyl)-2-methylpyridin-3-yl)sulfonyl)-N-methyl-N-(oxetan-3-yl)-2-azaspiro[3.3]heptan-6-amine]
100 to 500 | Cc1nc(C(F)(F)F)ncc1S(=O)(=O)N1CC2(CC(N(C)CC3CCOCC3)C2)C1 [Example 83, N-methyl-2-((4-methyl-2-(trifluoromethyl)pyrimidin-5-yl)sulfonyl)-N-((tetrahydro-2H-pyran-4-yl)methyl)-2-azaspiro[3.3]heptan-6-amine]
500 to 3000 | Cc1nc(C(C)(F)F)ccc1S(=O)(=O)N1CC2(CC(NC3COC3)C2)C1 [Example 69, 2-((6-(1,1-difluoroethyl)-2-methylpyridin-3-yl)sulfonyl)-N-(oxetan-3-yl)-2-azaspiro[3.3]heptan-6-amine]
